Source: the NIST ThermoML archive (doi:10.1021/acs.jced.6b00606)

Assay: molar heat capacity at constant pressure; xn = mol fraction of the nth substance listed
Details: 100 kPa, Liquid

O=C1CCCCCC1 [cycloheptanone] + C1CCOCC1
molar heat capacity at constant pressure [J/K/mol], Extra sensitive DSC
Details | 293.15 K | 298.15 K | 303.15 K | 308.15 K
x2 = 0.1121 | 196.3 | 197.43 | 198.93 | 200.52
x2 = 0.1652 | 194.07 | 195.27 | 196.82 | 198.49
x2 = 0.2103 | 192.18 | 193.43 | 195.03 | 196.74
x2 = 0.2652 | 189.86 | 191.15 | 192.76 | 194.53
x2 = 0.3187 | 187.56 | 188.91 | 190.53 | 192.28
x2 = 0.3562 | 185.92 | 187.28 | 188.93 | 190.71
x2 = 0.4036 | 183.78 | 185.22 | 186.84 | 188.65
x2 = 0.4562 | 181.33 | 182.82 | 184.44 | 186.27
x2 = 0.4921 | 179.6 | 181.13 | 182.76 | 184.65
x2 = 0.5341 | 177.51 | 179.07 | 180.74 | 182.63
x2 = 0.5896 | 174.63 | 176.29 | 177.96 | 179.93
x2 = 0.6231 | 172.8 | 174.52 | 176.25 | 178.18
x2 = 0.6741 | 169.93 | 171.69 | 173.45 | 175.49
x2 = 0.7256 | 166.92 | 168.74 | 170.53 | 172.58
x2 = 0.7769 | 163.72 | 165.58 | 167.38 | 169.46
x2 = 0.8321 | 160.14 | 162 | 163.83 | 165.92
x2 = 0.8754 | 157.18 | 159.06 | 160.84 | 162.89
x2 = 0.9365 | 152.82 | 154.62 | 156.31 | 158.31

O=C1CCCCCC1 [cycloheptanone] + C1COCCO1
molar heat capacity at constant pressure [J/K/mol], Extra sensitive DSC
Details | 293.15 K | 298.15 K | 303.15 K | 308.15 K
x2 = 0.0943 | 199.36 | 200.68 | 202.21 | 203.95
x2 = 0.1587 | 198.02 | 199.53 | 201.25 | 203.14
x2 = 0.2016 | 197.04 | 198.63 | 200.42 | 202.4
x2 = 0.2574 | 195.59 | 197.23 | 199.23 | 201.2
x2 = 0.3025 | 194.28 | 196 | 197.99 | 200.03
x2 = 0.3412 | 193.02 | 194.78 | 196.83 | 198.81
x2 = 0.3986 | 190.94 | 192.67 | 194.91 | 196.9
x2 = 0.4215 | 189.98 | 191.84 | 194.03 | 196.02
x2 = 0.4796 | 187.51 | 189.28 | 191.5 | 193.56
x2 = 0.5213 | 185.45 | 187.35 | 189.58 | 191.52
x2 = 0.5743 | 182.67 | 184.52 | 186.79 | 188.83
x2 = 0.6142 | 180.46 | 182.26 | 184.49 | 186.55
x2 = 0.6687 | 177.12 | 178.92 | 181.02 | 183.16
x2 = 0.7149 | 174.07 | 175.86 | 177.95 | 180.03
x2 = 0.7623 | 170.7 | 172.51 | 174.5 | 176.57
x2 = 0.8169 | 166.69 | 168.4 | 170.24 | 172.25
x2 = 0.8654 | 162.9 | 164.56 | 166.21 | 168.11
x2 = 0.9149 | 158.86 | 160.38 | 161.87 | 163.59

O=C1CCCCC1 [cyclohexanone] + C1CCOCC1
molar heat capacity at constant pressure [J/K/mol], Extra sensitive DSC
Details | 293.15 K | 298.15 K | 303.15 K | 308.15 K
x2 = 0.0995 | 176.32 | 178.62 | 180.9 | 183.36
x2 = 0.1452 | 175.99 | 178.41 | 181.03 | 183.58
x2 = 0.1965 | 175.76 | 178.4 | 181.02 | 183.49
x2 = 0.2456 | 175.65 | 178.24 | 180.93 | 183.53
x2 = 0.2863 | 175.47 | 178.06 | 180.64 | 183.3
x2 = 0.3321 | 175.13 | 177.68 | 180.22 | 182.87
x2 = 0.3845 | 174.53 | 177.03 | 179.51 | 182.09
x2 = 0.4215 | 173.95 | 176.42 | 178.92 | 181.49
x2 = 0.4723 | 172.86 | 175.29 | 177.75 | 180.31
x2 = 0.5241 | 171.58 | 173.99 | 176.42 | 178.98
x2 = 0.5796 | 169.75 | 172.22 | 174.56 | 177.13
x2 = 0.6153 | 168.49 | 170.9 | 173.23 | 175.87
x2 = 0.6654 | 166.35 | 168.77 | 171.21 | 173.73
x2 = 0.7132 | 164.19 | 166.61 | 168.92 | 171.57
x2 = 0.7698 | 161.26 | 163.68 | 165.99 | 168.56
x2 = 0.8265 | 158.18 | 160.54 | 162.79 | 165.3
x2 = 0.8732 | 155.48 | 157.76 | 159.9 | 162.31
x2 = 0.9245 | 152.46 | 154.55 | 156.51 | 158.75

O=C1CCCCC1 [cyclohexanone] + C1COCCO1
molar heat capacity at constant pressure [J/K/mol]
Details | 293.15 K | 298.15 K | 303.15 K | 308.15 K
x2 = 0.0799 | 173.61 | 175.65 | 177.71 | 179.75
x2 = 0.1351 | 171.94 | 173.94 | 175.96 | 177.96
x2 = 0.1965 | 170.17 | 172.12 | 174.08 | 176.03
x2 = 0.2378 | 169.01 | 170.93 | 172.86 | 174.77
x2 = 0.2874 | 167.66 | 169.54 | 171.43 | 173.28
x2 = 0.3258 | 166.66 | 168.49 | 170.34 | 172.17
x2 = 0.3642 | 165.66 | 167.46 | 169.27 | 171.07
x2 = 0.4195 | 164.26 | 166.02 | 167.78 | 169.52
x2 = 0.4625 | 163.21 | 164.92 | 166.62 | 168.33
x2 = 0.5061 | 162.15 | 163.82 | 165.49 | 167.15
x2 = 0.5543 | 161.01 | 162.63 | 164.25 | 165.88
x2 = 0.6023 | 159.9 | 161.47 | 163.05 | 164.62
x2 = 0.6487 | 158.83 | 160.36 | 161.9 | 163.44
x2 = 0.6946 | 157.82 | 159.29 | 160.78 | 162.27
x2 = 0.7412 | 156.79 | 158.22 | 159.66 | 161.12
x2 = 0.7845 | 155.87 | 157.25 | 158.66 | 160.06
x2 = 0.8398 | 154.71 | 156.04 | 157.39 | 158.74
x2 = 0.8975 | 153.56 | 154.82 | 156.1 | 157.39
